{"source": "patent US20230125487A1", "about": "“COMPOSITION FOR TREATING OR PREVENTING INFLAMMATORY BOWEL DISEASE” (FUGENBIO CO., LTD., priority 2019, published 2023)", "key": {"nitric oxide (NO)": {"test_system": "nitric oxide (NO)", "assay": "NO level in LPS-stimulated RAW 264.7 macrophages", "assay_type": "cell-based", "settings": "0.1 μg/mL E. coli-derived LPS, 25 μM compound, FIGS. 7a and 7b", "description": "(§1) RAW 264.7 macrophages were treated with 0.1 μg/mL of E. coli-derived LPS and 25 μM of Compounds A1 to A6, B1 to B6, or C1 to C6, respectively. Then, the mRNA expression level of the inflammatory cytokine TNFα was observed through RT-PCR.\nNitric oxide (NO), which is increased by LPS stimulation in RAW 264.7 macrophages, is one of the causes of inflammatory bowel disease along with inflammatory cytokines. Therefore, in Experimental Example 3, it was confirmed in the same manner as in Experimental Example 1 whether NO produced by LPS stimulation could be reduced by the compound according to the present invention.\nFIGS. 7a and 7b show the results of observing NO concentration (μM)."}, "IL-1β": {"test_system": "IL-1β", "assay": "IL-1β mRNA expression in LPS-stimulated RAW 264.7 macrophages", "assay_type": "cell-based", "settings": "0.1 μg/mL E. coli-derived LPS, 25 μM compound, FIG. 5"}, "MCP1": {"test_system": "MCP1", "assay": "MCP1 mRNA expression in LPS-stimulated RAW 264.7 macrophages", "assay_type": "cell-based", "settings": "0.1 μg/mL E. coli-derived LPS, 25 μM compound, FIG. 6"}, "iNOS": {"test_system": "iNOS", "assay": "iNOS mRNA expression in LPS-stimulated RAW 264.7 macrophages", "assay_type": "cell-based", "settings": "0.1 μg/mL E. coli-derived LPS, 25 μM compound, FIGS. 3a and 3b", "description": "as §1\n(§2) FIGS. 2a and 2b show the result of representing the mRNA expression level of COX2. FIGS. 3a and 3b show the result of representing the mRNA expression level of iNOS."}, "TNFα": {"test_system": "TNFα", "assay": "TNFα mRNA expression in LPS-stimulated RAW 264.7 macrophages (RT-PCR)", "assay_type": "cell-based", "settings": "0.1 μg/mL E. coli-derived LPS, 25 μM compound, FIGS. 1a to 1c", "description": "as §1"}, "IL-1α": {"test_system": "IL-1α", "assay": "IL-1α mRNA expression in LPS-stimulated RAW 264.7 macrophages", "assay_type": "cell-based", "settings": "0.1 μg/mL E. coli-derived LPS, 25 μM compound, FIG. 4"}, "COX2": {"test_system": "COX2", "assay": "COX2 mRNA expression in LPS-stimulated RAW 264.7 macrophages", "assay_type": "cell-based", "settings": "0.1 μg/mL E. coli-derived LPS, 25 μM compound, FIGS. 2a and 2b", "description": "as §1, §2"}, "[1]": {"test_system": "free radicals and NO formation", "settings": "disclosed in Cheng et al., Biochemical Pharmacology, 2001, Vol. 61, 939-946; cited from earlier work"}}}
{"smiles": "CC(C)=CCc1cc(C(=O)/C=C/c2ccc(O)c(O)c2)c(O)cc1O", "note": "[Compound A1, broussochalcone A]", "values": [{"measurement": "NO level increased by LPS stimulation", "setting": "nitric oxide (NO)", "result": "suppressed"}, {"measurement": "mRNA expression level of IL-1β", "setting": "IL-1β", "result": "suppressed"}, {"measurement": "mRNA expression level of MCP1", "setting": "MCP1", "result": "suppressed"}, {"measurement": "mRNA expression level of iNOS", "setting": "iNOS", "result": "suppressed"}, {"measurement": "increase in the mRNA expression level of TNFα induced by LPS stimulation", "setting": "TNFα", "result": "suppressed"}, {"measurement": "mRNA expression level of IL-1α", "setting": "IL-1α", "result": "suppressed"}, {"measurement": "mRNA expression level of COX2", "setting": "COX2", "result": "suppressed"}, {"measurement": "excessive free radicals and NO formation", "setting": "[1]", "result": "inhibits"}]}
